Reference: ChEMBL document CHEMBL2311286, “Design and synthesis of alkoxyindolyl-3-acetic acid analogs as peroxisome proliferator-activated receptor-γ/δ agonists” (Bioorg Med Chem Lett, 2013)

What was measured:
[1] = target: T1, Peroxisome proliferator-activated receptor delta (Mus musculus) (UniProt P35396); experiment: Agonist activity at mouse PPARdelta assessed as maximum activation at 10 uM by in vitro functional transactivation assay relative to 0.1 uM GW0742
T1 sequence (whole entry): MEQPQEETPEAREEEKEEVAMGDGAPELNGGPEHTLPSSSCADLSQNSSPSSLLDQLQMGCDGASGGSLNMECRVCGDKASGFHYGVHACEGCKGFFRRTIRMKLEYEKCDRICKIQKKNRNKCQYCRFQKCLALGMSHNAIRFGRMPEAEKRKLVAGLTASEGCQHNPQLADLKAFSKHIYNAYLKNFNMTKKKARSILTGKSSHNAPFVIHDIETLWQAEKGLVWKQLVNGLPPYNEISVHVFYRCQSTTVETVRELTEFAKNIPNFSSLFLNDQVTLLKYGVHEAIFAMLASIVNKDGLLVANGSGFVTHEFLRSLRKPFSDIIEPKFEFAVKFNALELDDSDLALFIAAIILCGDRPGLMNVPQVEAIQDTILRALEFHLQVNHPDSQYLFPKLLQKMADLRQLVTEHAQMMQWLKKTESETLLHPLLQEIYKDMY

[2] = target: T2, Peroxisome proliferator-activated receptor gamma (Mus musculus) (UniProt P37238); experiment: Agonist activity at mouse PPARgamma assessed as maximum activation at 10 uM by in vitro functional transactivation assay relative to 1 uM rosiglitazone
T2 sequence (whole entry): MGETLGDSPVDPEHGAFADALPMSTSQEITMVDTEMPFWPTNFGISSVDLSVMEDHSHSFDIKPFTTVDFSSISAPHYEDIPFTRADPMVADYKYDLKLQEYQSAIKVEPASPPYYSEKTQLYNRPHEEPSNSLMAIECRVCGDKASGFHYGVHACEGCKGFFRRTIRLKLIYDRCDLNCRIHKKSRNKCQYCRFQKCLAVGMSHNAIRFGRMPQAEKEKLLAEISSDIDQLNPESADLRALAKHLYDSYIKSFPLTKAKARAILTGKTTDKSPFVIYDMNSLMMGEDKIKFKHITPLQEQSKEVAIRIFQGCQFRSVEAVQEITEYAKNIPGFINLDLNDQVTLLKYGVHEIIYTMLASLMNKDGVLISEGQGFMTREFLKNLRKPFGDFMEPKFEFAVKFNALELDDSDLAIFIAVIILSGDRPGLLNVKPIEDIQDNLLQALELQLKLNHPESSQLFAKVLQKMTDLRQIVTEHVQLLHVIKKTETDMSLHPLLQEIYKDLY

[3] = target: T3, Peroxisome proliferator-activated receptor alpha (Mus musculus) (UniProt P23204); experiment: Agonist activity at mouse PPARalpha assessed as maximum activation at 10 uM by in vitro functional transactivation assay relative to 1 uM GW0746
T3 sequence (whole entry): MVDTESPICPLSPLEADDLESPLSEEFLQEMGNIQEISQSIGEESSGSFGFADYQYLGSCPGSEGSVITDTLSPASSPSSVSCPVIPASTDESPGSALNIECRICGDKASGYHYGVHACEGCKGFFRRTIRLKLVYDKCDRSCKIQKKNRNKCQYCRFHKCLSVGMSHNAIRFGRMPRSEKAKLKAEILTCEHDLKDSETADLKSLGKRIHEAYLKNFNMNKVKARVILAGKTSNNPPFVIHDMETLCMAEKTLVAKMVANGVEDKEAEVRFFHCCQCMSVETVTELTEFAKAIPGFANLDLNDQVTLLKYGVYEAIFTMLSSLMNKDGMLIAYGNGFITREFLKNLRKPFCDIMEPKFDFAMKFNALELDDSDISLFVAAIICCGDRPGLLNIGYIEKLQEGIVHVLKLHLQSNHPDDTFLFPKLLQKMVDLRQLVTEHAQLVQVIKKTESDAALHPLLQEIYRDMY

| %max [1] [%] | %max [2] [%] | %max [3] [%] | Compound |
| --- | --- | --- | --- |
| 36.6 | 23.8 | < 10 | O=C(O)Cc1cn(Cc2ccc(F)cc2)c2cc(OCCCN3c4ccccc4Oc4ccccc43)ccc12 |
| 27.3 | < 10 | < 10 | O=C(O)Cc1cn(Cc2ccccc2)c2cc(OCCCN3c4ccccc4Oc4ccccc43)ccc12 |
| 41.3 | 28.7 | < 10 | O=C(O)Cc1cn(Cc2ccccc2)c2ccc(OCCCn3c4ccccc4c4ccccc43)cc12 |
| 21.7 | 43.1 | 12.8 | O=C(O)Cc1cn(Cc2ccccc2)c2ccc(OCCCN3c4ccccc4Oc4ccccc43)cc12 |
| < 10 | < 10 | < 10 | O=C(O)Cc1c[nH]c2cc(OCCCn3c4ccccc4c4ccccc43)ccc12 |

Continued, compound first:

| Compound | %max [1] [%] | %max [2] [%] | %max [3] [%] |
| --- | --- | --- | --- |
| O=C(O)Cc1cn(Cc2ccccc2)c2cc(OCCCn3c4ccccc4c4ccccc43)ccc12 | < 10 | < 10 | < 10 |
| O=C(O)Cc1c[nH]c2cc(OCCCN3c4ccccc4Oc4ccccc43)ccc12 | < 10 | < 10 | < 10 |
| O=C(O)Cc1c[nH]c2ccc(OCCCN3c4ccccc4Oc4ccccc43)cc12 | 16 | 29.4 | < 10 |
| O=C(O)Cc1c[nH]c2ccc(OCCCn3c4ccccc4c4ccccc43)cc12 | 10.5 | < 10 | 10.1 |
